Columns and labels:
[1] = target: T1, Low molecular weight phosphotyrosine protein phosphatase (Homo sapiens, UniProt P24666); test: Inhibition of recombinant human ACP1 using pNPP as substrate preincubated with compound for 10 mins followed by substrate addition and measured by absorbance based assay
T1 sequence (P24666 whole entry): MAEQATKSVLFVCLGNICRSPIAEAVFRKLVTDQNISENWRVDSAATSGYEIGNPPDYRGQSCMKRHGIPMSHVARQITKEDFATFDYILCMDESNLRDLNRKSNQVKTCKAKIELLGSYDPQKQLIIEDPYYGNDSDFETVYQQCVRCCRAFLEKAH

[2] = target: T2, Tyrosine-protein phosphatase non-receptor type 1 (Homo sapiens, UniProt P18031); test: Inhibition of recombinant human PTP1B using pNPP as substrate preincubated with compound for 10 mins followed by substrate addition and measured by absorbance based assay
T2 sequence (P18031 whole entry): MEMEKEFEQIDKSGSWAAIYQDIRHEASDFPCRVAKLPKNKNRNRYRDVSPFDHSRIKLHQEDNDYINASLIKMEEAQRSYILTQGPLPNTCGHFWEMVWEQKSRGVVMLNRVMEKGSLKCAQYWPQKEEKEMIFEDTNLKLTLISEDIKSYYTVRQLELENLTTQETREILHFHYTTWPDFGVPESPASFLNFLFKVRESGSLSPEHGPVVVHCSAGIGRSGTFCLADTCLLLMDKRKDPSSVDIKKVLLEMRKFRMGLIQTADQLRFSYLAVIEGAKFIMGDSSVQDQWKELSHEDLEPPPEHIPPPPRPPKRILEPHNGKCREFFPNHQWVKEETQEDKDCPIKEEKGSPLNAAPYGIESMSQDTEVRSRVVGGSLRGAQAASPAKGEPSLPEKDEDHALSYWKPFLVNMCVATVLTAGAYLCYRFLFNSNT

[3] = target: T3, Tyrosine-protein phosphatase non-receptor type 2 (Homo sapiens, UniProt P17706)
T3 sequence (P17706 whole entry): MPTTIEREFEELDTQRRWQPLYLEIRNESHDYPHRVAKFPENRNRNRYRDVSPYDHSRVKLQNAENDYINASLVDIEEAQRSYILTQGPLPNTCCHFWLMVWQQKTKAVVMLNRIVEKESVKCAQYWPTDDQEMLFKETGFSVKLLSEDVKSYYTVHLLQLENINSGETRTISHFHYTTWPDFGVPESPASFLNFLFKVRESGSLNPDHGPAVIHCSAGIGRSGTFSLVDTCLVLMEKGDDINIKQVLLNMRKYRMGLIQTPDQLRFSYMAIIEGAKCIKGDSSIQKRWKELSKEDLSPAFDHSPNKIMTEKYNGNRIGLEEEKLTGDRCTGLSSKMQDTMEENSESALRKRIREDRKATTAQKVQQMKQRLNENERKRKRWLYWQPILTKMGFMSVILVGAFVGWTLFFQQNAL
Description: Inhibition of recombinant human TCPTP

[4] = target: T4, Receptor-type tyrosine-protein phosphatase C (Homo sapiens, UniProt P08575)
T4 sequence (P08575 whole entry): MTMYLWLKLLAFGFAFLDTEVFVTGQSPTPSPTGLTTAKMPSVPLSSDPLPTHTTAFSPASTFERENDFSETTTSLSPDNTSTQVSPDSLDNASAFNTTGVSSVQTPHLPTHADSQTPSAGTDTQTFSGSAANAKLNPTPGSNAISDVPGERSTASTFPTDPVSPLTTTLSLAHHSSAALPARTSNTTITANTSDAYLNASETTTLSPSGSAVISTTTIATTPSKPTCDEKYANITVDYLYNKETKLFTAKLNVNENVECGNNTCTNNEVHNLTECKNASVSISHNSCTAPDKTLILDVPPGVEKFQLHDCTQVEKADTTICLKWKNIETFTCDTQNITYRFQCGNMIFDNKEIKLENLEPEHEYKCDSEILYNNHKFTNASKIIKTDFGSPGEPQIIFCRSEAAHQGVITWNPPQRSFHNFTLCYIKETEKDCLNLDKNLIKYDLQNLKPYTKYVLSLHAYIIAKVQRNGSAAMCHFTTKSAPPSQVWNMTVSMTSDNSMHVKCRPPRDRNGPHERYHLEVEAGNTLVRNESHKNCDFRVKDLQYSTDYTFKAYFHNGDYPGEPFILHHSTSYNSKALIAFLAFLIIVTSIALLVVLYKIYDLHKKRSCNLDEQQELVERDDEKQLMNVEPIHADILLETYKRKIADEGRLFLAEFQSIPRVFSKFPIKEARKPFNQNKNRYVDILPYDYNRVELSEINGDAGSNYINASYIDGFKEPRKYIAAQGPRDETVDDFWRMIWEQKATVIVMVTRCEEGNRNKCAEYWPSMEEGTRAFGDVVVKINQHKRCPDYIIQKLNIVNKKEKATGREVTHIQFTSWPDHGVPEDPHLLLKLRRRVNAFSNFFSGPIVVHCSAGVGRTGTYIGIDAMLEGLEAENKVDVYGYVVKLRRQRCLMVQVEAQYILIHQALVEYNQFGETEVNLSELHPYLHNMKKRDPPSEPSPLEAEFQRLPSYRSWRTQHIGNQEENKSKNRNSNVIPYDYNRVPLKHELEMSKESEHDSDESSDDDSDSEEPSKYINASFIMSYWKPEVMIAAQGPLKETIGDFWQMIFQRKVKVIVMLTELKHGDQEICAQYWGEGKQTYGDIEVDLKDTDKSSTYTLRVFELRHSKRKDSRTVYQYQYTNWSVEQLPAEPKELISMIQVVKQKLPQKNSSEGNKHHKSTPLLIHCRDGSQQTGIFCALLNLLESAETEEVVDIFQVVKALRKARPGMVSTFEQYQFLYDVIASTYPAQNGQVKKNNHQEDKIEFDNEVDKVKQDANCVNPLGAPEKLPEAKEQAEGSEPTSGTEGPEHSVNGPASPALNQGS
Description: Inhibition of recombinant human CD45

Row | IC50 [1] | IC50 [2] | IC50 [3] | IC50 [4] | SMILES
1 | 5.2 µM | 8.2 µM | 12.7 µM | > 40 µM | COc1cc(/C=C2/NC(=O)N(Cc3ccccc3)C2=O)cc(Cl)c1OCc1cccc(C(=O)O)c1
2 | – | – | 8.3 µM | > 40 µM | COc1cc(/C=C2/NC(=O)N(Cc3ccc(C)cc3)C2=O)ccc1OCc1cccc(C(=O)O)c1

Reference: ChEMBL document CHEMBL5356965, “Discovery and biological evaluation of novel dual PTP1B and ACP1 inhibitors for the treatment of insulin resistance” (Bioorg Med Chem, 2024)
